Here are results for twelve molecules from ChEMBL document CHEMBL1153603, “Phenethyl pyridines with non-polar internal substituents as selective ligands for estrogen receptor beta” (Eur J Med Chem, 2009).

Test [1] deals with T1, Estrogen receptor beta (Homo sapiens, UniProt Q92731). The test is described as follows: Displacement of [3H]estradiol form human ERbeta receptor assessed as relative binding affinity by competitive radiometric binding assay relative to estradiol.
For test [2], the target named is T1, Estrogen receptor beta. In words: Activity at human ERbeta expressed in HEC1 cells co-transfected with 2ERE-pS2-Luc assessed as relative transcriptional potency by luciferase reporter assay. In kind it is cell-based, HEC-1.
Test [3] deals with T1, Estrogen receptor beta. The test is described as follows: Activity at human ERbeta expressed in HEC1 cells co-transfected with 2ERE-pS2-Luc assessed as relative transcriptional potency by luciferase reporter assay relative to estradiol. In kind it is cell-based. Conditions: HEC-1.
A further test concerns the target T2, Estrogen receptor (Homo sapiens, UniProt P03372).
T2 sequence (P03372 whole entry): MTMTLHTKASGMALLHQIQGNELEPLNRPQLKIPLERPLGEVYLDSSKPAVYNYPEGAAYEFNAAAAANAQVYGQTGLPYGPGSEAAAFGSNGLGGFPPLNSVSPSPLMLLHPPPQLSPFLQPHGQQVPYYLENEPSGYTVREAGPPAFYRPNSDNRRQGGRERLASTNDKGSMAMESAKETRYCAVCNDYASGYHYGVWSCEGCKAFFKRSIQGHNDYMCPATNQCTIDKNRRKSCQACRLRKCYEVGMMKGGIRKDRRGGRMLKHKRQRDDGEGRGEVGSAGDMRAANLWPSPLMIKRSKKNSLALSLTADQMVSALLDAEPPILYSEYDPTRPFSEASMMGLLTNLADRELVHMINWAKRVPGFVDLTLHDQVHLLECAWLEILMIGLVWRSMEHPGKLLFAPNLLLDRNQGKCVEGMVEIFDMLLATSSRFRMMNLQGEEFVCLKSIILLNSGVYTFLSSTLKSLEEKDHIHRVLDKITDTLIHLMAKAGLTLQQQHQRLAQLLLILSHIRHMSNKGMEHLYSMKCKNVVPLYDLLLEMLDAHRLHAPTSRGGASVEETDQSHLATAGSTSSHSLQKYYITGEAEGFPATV
In words: Activity at human ERalpha expressed in HEC1 cells co-transfected with 2ERE-pS2-Luc assessed as relative transcriptional potency by luciferase reporter assay. The test is classed as cell-based, HEC-1.

SMILES strings stand for the structures.

T1 sequence (Q92731 whole entry): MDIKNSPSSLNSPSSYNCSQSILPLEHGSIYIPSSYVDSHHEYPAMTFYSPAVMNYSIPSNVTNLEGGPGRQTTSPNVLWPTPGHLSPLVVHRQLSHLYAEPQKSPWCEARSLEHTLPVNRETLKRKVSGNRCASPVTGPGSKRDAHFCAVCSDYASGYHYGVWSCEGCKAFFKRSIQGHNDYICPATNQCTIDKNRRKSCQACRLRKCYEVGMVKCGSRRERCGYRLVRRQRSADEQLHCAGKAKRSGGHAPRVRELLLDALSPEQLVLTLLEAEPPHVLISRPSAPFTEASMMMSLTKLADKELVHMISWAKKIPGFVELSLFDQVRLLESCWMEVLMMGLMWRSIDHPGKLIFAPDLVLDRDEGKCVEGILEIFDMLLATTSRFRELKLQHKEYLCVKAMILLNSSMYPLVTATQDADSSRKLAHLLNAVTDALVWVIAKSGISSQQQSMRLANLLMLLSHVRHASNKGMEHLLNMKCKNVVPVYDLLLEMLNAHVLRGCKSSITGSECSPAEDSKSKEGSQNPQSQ

As for `CC[C@H](c1ccc(O)cn1)[C@H](C)c1ccc(O)cc1` (relative stereo), the RBA on Estrogen receptor beta [1] worked out at 0.119%.

`CC(Cc1ccc(O)cn1)c1ccc(O)cc1` (stereo not given): the RBA on Estrogen receptor beta [1] was determined as 0.17%. Also, the EC50 on Estrogen receptor beta [2] is 0.17 µM; on Estrogen receptor, 0.44 µM. For the same molecule, at Estrogen receptor beta [3], the Activity turned out to be 0.29%.

With `CCCC(Cc1ccc(O)cc1)c1ccc(O)cn1` (stereo not given), the RBA at Estrogen receptor beta [1] was 0.101%.

Take `CC[C@H](c1ccc(O)cn1)[C@@H](CC)c1ccc(O)cc1` (relative stereo): the RBA at Estrogen receptor beta [1] came out at 7.5%. The figures for the EC50 at Estrogen receptor beta [2] and on Estrogen receptor were 0.00061 µM and 0.00011 µM, respectively. The Activity on Estrogen receptor beta [3] was 82%.

With `CC[C@H](c1ccc(O)cn1)[C@@H](CC)c1ccccc1`, on Estrogen receptor beta [1], the RBA stood at 0.684%.

Regarding `CC[C@H](c1ccc(O)cn1)[C@@H](C)c1ccc(O)cc1` (relative stereo), the RBA on Estrogen receptor beta [1] was 5.3%. Moreover, the EC50 on Estrogen receptor beta [2] stood at 0.0011 µM; on Estrogen receptor, 0.00011 µM. Moreover, the Activity at Estrogen receptor beta [3] was 45%.

For `CCC(Cc1ccc(O)cc1)c1ccc(O)cn1` (stereo not given), on Estrogen receptor beta [1], the RBA stood at 0.72%. Also, the EC50 stood at 0.017 µM on Estrogen receptor beta [2] and 0.065 µM on Estrogen receptor. Also, the Activity on Estrogen receptor beta [3] is 2.94%.

Regarding `CC(Cc1ccc(O)cc1)c1ccc(O)cn1` (stereo not given), the RBA at Estrogen receptor beta [1] turned out to be 0.27%. The 50% effective concentration (EC50) on Estrogen receptor beta [2] came out at 0.06 µM; at Estrogen receptor, 0.33 µM. The Activity on Estrogen receptor beta [3] was 0.83%.

Consider `Oc1ccc(CCc2ccc(O)cn2)cc1`, for which the RBA on Estrogen receptor beta [1] worked out at 0.025%.

As to `CC[C@H](c1ccccc1)[C@H](CC)c1ccc(O)cn1`, at Estrogen receptor beta [1], the RBA stood at 0.023%.

As to `CCC(Cc1ccc(O)cn1)c1ccc(O)cc1` (stereo not given), the RBA at Estrogen receptor beta [1] was 0.15%.

Take `CC[C@H](c1ccc(O)cc1)[C@H](CC)c1ccc(O)cn1` (relative stereo): the RBA at Estrogen receptor beta [1] came to 0.67%. The EC50 at Estrogen receptor beta [2] was found to be 0.026 µM; on Estrogen receptor, 0.016 µM. Also, the Activity on Estrogen receptor beta [3] worked out at 1.9%.
